Reference: ChEMBL document CHEMBL1201862, “PubChem BioAssay data set” (2004)
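All cell lines were grown in 96-well plates and treated with compound for 48 hours. The concentration for 50% growth inhibition is given as GI50.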 The source made the active and inactive calls. No stated cut-off is given here; in the data, active = GI50 up to about 1.1 µM and inactive = higher.

Assays:
Assay in all cases: growth of human tumour cells (NCI), 48 h
[1] = system: DMS-114
[2] = system: HOP-18
[3] = system: KM-20L2
[4] = system: LXFL 529
[5] = system: M19-MEL
[6] = system: MDA-N
[7] = system: RXF 631
[8] = system: T47D
[9] = system: XF498

Row | SMILES | GI50 [1] | GI50 [2] | GI50 [3] | GI50 [4] | GI50 [5] | GI50 [6] | GI50 [7] | GI50 [8] | GI50 [9]
1 | Cc1nc2ccc(NCCN(C)C)c3c(=O)c4ccccc4n1c23 | 5.52 µM (inactive) | 3.2 µM (inactive) | 1.99 µM (inactive) | 6.56 µM (inactive) | 5.9 µM (inactive) | 1.66 µM (inactive) | 1.74 µM (inactive) | 12.2 µM (inactive) | 
2 | Cc1cccc(C2NC(=O)c3ccccc3N2)c1 (configuration not stated) |  |  |  |  |  | 0.543 µM (active) |  | > 100 µM (inactive) | 
3 | C=C(NC(=O)C(=C)NC(=O)c1csc(C2=NC3c4csc(n4)C4NC(=O)c5csc(n5)C(C(C)(O)C(C)O)NC(=O)C5CSC(=N5)/C(=C/C)NC(=O)C(C(C)O)NC(=O)c5csc(n5)C3(CC2)NC(=O)C(C)NC(=O)C(=C)NC(=O)C(=C)NC(=O)C(C(C)C)NC2C=Cc3c(C(C)O)cc(nc3C2O)C(=O)OC4C)n1)C(N)=O (configuration not stated) |  |  |  |  |  | 1.56 µM (inactive) |  | 2.4 µM (inactive) | 
4 | O=C1CC(/C=C/c2ccco2)=C(O)C1=O |  |  |  |  |  | 12.3 µM (inactive) |  | 14.2 µM (inactive) | 
5 | CC1(n2nc(-c3ccccc3)n(-c3ccccc3)c2=O)CSC1 | 69.5 µM (inactive) |  | > 100 µM (inactive) | > 100 µM (inactive) | > 100 µM (inactive) |  |  |  | 58.9 µM (inactive)
6 | Clc1ccc2c(Cl)nc(-c3ccccc3)nc2c1 | 18.6 µM (inactive) |  | 25.6 µM (inactive) | 26.9 µM (inactive) | 47.1 µM (inactive) |  |  |  | 3.88 µM (inactive)
7 | N=C(N)NCCCC(Nc1c2ccccc2[n+]([O-])c2ccccc12)C(=O)O (configuration not stated) | 23.6 µM (inactive) | 33.3 µM (inactive) | 95.7 µM (inactive) | 22.5 µM (inactive) | 44.7 µM (inactive) |  | > 100 µM (inactive) |  | 
8 | CS/C(=N\c1ccccc1)N(c1ccccc1)c1nc(=[N+](C)C)ss1.[O-][Cl+3]([O-])([O-])[O-] | 0.0486 µM (active) |  | 1.06 µM (active) |  | 0.0877 µM (active) |  |  |  | 
9 | CNC(=O)OCc1nc(SC)n(C)c1COC(=O)NC | 80.5 µM (inactive) | 232 µM (inactive) | 177 µM (inactive) |  | 182 µM (inactive) | 161 µM (inactive) |  | 171 µM (inactive) | 253 µM (inactive)
10 | CN1CN(c2ccccc2)C2(CCN(CCCCCCF)CC2)C1=O |  |  |  |  |  | 63.8 µM (inactive) |  | 29.9 µM (inactive) | 
11 | O=Cc1cn(C(=O)c2ccccc2)c2ccccc12 | 60.1 µM (inactive) |  | > 100 µM (inactive) | 51.3 µM (inactive) | > 100 µM (inactive) |  |  |  | 
12 | CCOC(=O)[C@H]1Nc2ccc(Cl)cc2[C@H]2OCC[C@@H]12 | > 100 µM (inactive) | > 100 µM (inactive) | > 100 µM (inactive) | > 100 µM (inactive) | > 100 µM (inactive) |  | > 100 µM (inactive) |  | > 100 µM (inactive)
13 | CCOC(=O)NNC(=O)NCCCCNC(=O)NNC(=O)OCC |  |  |  |  |  | > 100 µM (inactive) |  | > 100 µM (inactive) | 
14 | O=C(N/N=C(/c1ccccc1)C(F)(F)F)c1ccncc1 |  |  |  |  |  | > 100 µM (inactive) |  | > 100 µM (inactive) | 
15 | O=CC1CCCc2ccccc21 (configuration not stated) | > 47.3 µM (inactive) | > 100 µM (inactive) | > 100 µM (inactive) | > 100 µM (inactive) | > 100 µM (inactive) |  |  |  | > 100 µM (inactive)
16 | CN(C)CCC(/C=C/c1ccccc1)=N\Nc1c(F)c(F)c(F)c(F)c1F | 21.7 µM (inactive) | 44.1 µM (inactive) |  | 77.8 µM (inactive) | 39.4 µM (inactive) |  |  |  | 
17 | CCC1(O)CC(CCN(Cc2ccccc2)C(=O)OCc2ccccc2)C(OCc2ccccc2)C1O (configuration not stated) |  |  |  |  |  | 26.8 µM (inactive) |  | 12.2 µM (inactive) | 
18 | O=C1C(Cl)C(c2cc3cc(Br)ccc3nc2Cl)N1c1c(Cl)cccc1Cl (configuration not stated) |  |  |  |  |  | 9.68 µM (inactive) |  | 11.6 µM (inactive) | 
19 | COc1ccc(S(=O)(=O)N/N=C(\C)CN2C(=O)c3ccccc3C2=O)cc1 | > 100 µM (inactive) | > 100 µM (inactive) | > 100 µM (inactive) | > 100 µM (inactive) | > 100 µM (inactive) |  | > 100 µM (inactive) |  | 
20 | O=C1CCC(=O)c2cc(Br)ccc2N1 | > 90.6 µM (inactive) | > 100 µM (inactive) | > 100 µM (inactive) | > 100 µM (inactive) | > 70.5 µM (inactive) |  | > 100 µM (inactive) |  | > 100 µM (inactive)
21 | Cn1c(=O)sc2cc(C(=S)N3CCOCC3)ccc21 |  |  |  |  |  | > 100 µM (inactive) |  | > 100 µM (inactive) | 
22 | O=P(Nc1cccc(Cl)c1)(Oc1ccccc1)N(CCCl)CCCl (configuration not stated) | 12.7 µM (inactive) | 24.9 µM (inactive) | 13.3 µM (inactive) | 11.7 µM (inactive) | 18 µM (inactive) |  |  |  | 
23 | c1ccc2c(c1)CCCN1CCc3ccccc3C21 (configuration not stated) |  |  |  |  |  | 27 µM (inactive) |  | > 100 µM (inactive) | 

Row | SMILES | GI50 [1] | GI50 [2] | GI50 [3] | GI50 [4] | GI50 [5] | GI50 [6] | GI50 [7] | GI50 [8] | GI50 [9]
24 | COc1ccc(C2C(Cl)C(=O)N2NC(=O)c2ccc(N)cc2)cc1 (configuration not stated) | > 100 µM (inactive) |  | > 100 µM (inactive) | > 100 µM (inactive) | > 100 µM (inactive) |  |  |  | > 100 µM (inactive)
25 | Nc1cc(Cl)cc2cc(Cl)cnc12 |  |  |  |  |  | > 100 µM (inactive) |  | 26.4 µM (inactive) | 
26 | Cc1ccc2c(c1CCCC(C)(C)O)C(=O)C(O)=C(C(C)C)C2=O | 39.1 µM (inactive) | > 100 µM (inactive) | > 100 µM (inactive) | 62.1 µM (inactive) | 96.6 µM (inactive) |  |  |  | 
27 | COC(=O)C(Cc1nc2ccccc2nc1O)C(=O)C(=O)Nc1ccc(F)cc1 (configuration not stated) | 22.9 µM (inactive) | > 100 µM (inactive) | > 100 µM (inactive) | 15.7 µM (inactive) | 46.7 µM (inactive) |  | 32.7 µM (inactive) |  | 54 µM (inactive)
28 | COc1ccc(/C=C/C(=N\NC(=O)c2ccccc2)c2sc(Nc3ccc([N+](=O)[O-])cc3)nc2C)cc1OC | 15.1 µM (inactive) | 27.7 µM (inactive) | 8.67 µM (inactive) | 7.67 µM (inactive) | 12.6 µM (inactive) |  |  |  | 10.3 µM (inactive)
29 | Cc1ccc(C(=O)CC2=Nc3nnc(CCCCCCCc4nnc5n4C(=O)C(CC(=O)c4ccc(C)cc4)=N5)n3C2=O)cc1 | > 100 µM (inactive) | > 100 µM (inactive) | > 100 µM (inactive) | > 100 µM (inactive) | > 100 µM (inactive) |  | > 100 µM (inactive) |  | > 100 µM (inactive)
30 | CC1(c2ccc(Cl)cc2)C2C(=O)NC(=O)C1C(=O)NC2=O (configuration not stated) |  |  | 56.5 µM (inactive) | > 100 µM (inactive) | > 100 µM (inactive) |  |  |  | > 100 µM (inactive)
31 | N#CC1(C#N)C2=C(CCCC2)NC(c2ccc(Br)cc2)C1(C#N)C#N (configuration not stated) |  |  |  |  |  | 4.26 µM (inactive) |  | 2.26 µM (inactive) | 
32 | O=C(Nc1ccccc1)C(=O)C(C(=O)c1ccccc1F)C1OC(=O)c2ccccc21 (configuration not stated) | 20.9 µM (inactive) |  | 33.6 µM (inactive) | 23.6 µM (inactive) | 30.1 µM (inactive) |  | 31.2 µM (inactive) |  | 20.7 µM (inactive)
33 | ClC1=NN=C(c2c[nH]c3ccccc23)CC1NCc1ccccc1 (configuration not stated) |  |  |  |  |  | > 100 µM (inactive) |  | > 100 µM (inactive) | 
34 | COc1cc(C(O)CCBr)c(OC)cc1C (configuration not stated) |  |  |  |  |  | 2.79 µM (inactive) |  | > 72.1 µM (inactive) | 
35 | CCOC(=O)CC(=O)ON(C)C(=O)Cc1ccccc1 | > 100 µM (inactive) |  | > 100 µM (inactive) | > 100 µM (inactive) | > 100 µM (inactive) |  | > 100 µM (inactive) |  | 
36 | CC(C)=CC(=O)OC1C2C(C)C(=O)OC2C(O)C(C)C2C=CC(=O)C21C (configuration not stated) | 2.58 µM (inactive) | 6.67 µM (inactive) | 3.42 µM (inactive) |  | 3.01 µM (inactive) |  |  |  | 5.08 µM (inactive)
37 | C[P+](C)(C)c1ccccc1 | > 100 µM (inactive) | > 100 µM (inactive) | > 100 µM (inactive) | > 100 µM (inactive) | > 100 µM (inactive) |  | > 100 µM (inactive) |  | > 100 µM (inactive)
38 | Cc1cc(N(CCC#N)CCC#N)ccc1/N=N/c1cccc(C(=O)O)c1 | > 100 µM (inactive) | > 100 µM (inactive) |  | > 100 µM (inactive) | > 100 µM (inactive) |  | > 100 µM (inactive) |  | 52.4 µM (inactive)
39 | CC(C)CCCCCCCCCCCCC(=O)NCC(=O)NC1C(C)OC(Nc2ncnc3c2ncn3C)C(O)C1O (configuration not stated) | 7.82 µM (inactive) | 2.48 µM (inactive) | 4.02 µM (inactive) |  | 11.4 µM (inactive) |  |  |  | 3.56 µM (inactive)
40 | O=c1[nH]cnc2c1ncn2[C@H]1CO[C@@H](CO)[C@@H]1O |  |  |  |  |  | > 100 µM (inactive) |  | > 100 µM (inactive) | 
41 | COc1ccc(/C(Cl)=C(\CN(C)C)c2ccc(OC)c(OC)c2)cc1OC.[B] |  | > 100 µM (inactive) | > 100 µM (inactive) | > 100 µM (inactive) |  |  |  |  | 
42 | CN1OC(=O)N(C)C1c1ccccc1 (configuration not stated) | > 100 µM (inactive) | > 100 µM (inactive) | > 100 µM (inactive) |  | > 100 µM (inactive) |  |  |  | > 100 µM (inactive)
43 | CC(=O)OCCCC(NC(=O)OC(C)(C)C)C(=O)NC(CCCOC(C)=O)C(=O)NC(Cc1ccc([N+](=O)[O-])cc1)C(=O)NCC(=O)OCc1ccccc1 (configuration not stated) |  |  |  |  |  | 15.3 µM (inactive) |  | 18 µM (inactive) | 
44 | Cc1cc(O)nc(NNC(C#N)c2cccc(O)c2)n1 (configuration not stated) | > 100 µM (inactive) | 86.7 µM (inactive) | > 100 µM (inactive) | > 100 µM (inactive) | > 100 µM (inactive) |  |  |  | 
45 | O=C(c1ccc(O)cc1O)C1C(c2ccc(O)cc2)OC(c2ccc(O)cc2)C1C(=O)c1ccc(O)cc1O (configuration not stated) |  |  | 71 µM (inactive) | 17.3 µM (inactive) | 19.6 µM (inactive) |  |  |  | 15.5 µM (inactive)
46 | CCC1(c2ccc(N)cc2)CCC(=O)NC1=O (configuration not stated) [AMINOGLUTETHIMIDE] | 1530 µM (inactive) | 3120 µM (inactive) | 3940 µM (inactive) |  | 2210 µM (inactive) | 3250 µM (inactive) |  | 2070 µM (inactive) | 1550 µM (inactive)
